{
  "source": "ChEMBL document CHEMBL5500364",
  "about": "“Design, synthesis, and biological evaluation of some 2-(3-oxo-5,6-diphenyl-1,2,4-triazin-2(3H)-yl)-N-phenylacetamide hybrids as MTDLs for Alzheimer's disease therapy” (Eur J Med Chem, 2024)",
  "key": {"[1]": {"assay": "Acute toxicity in Wistar rat assessed as effect on kupffer cells appearance in liver at 500 to 1000 mg/kg, po administered for 14 days by histopathological analysis", "assay_type": "organism-based", "conditions": "in vivo, 336 h, dose 500-1000 mg/kg, time 14 day"}, "[2]": {"assay": "Half-life in male Wistar rat at 10 mg/kg, po measured after 72 hrs by HPLC analysis", "assay_type": "ADME, organism-based", "conditions": "in vivo"}, "Rattus norvegicus [3]": {"system": "Rattus norvegicus", "assay": "Reduction in AChE level in scopolamine-induced male Wistar rat brain hippocampus preadministered with compound orally for 30 mins starting from 7 th day trail followed by scopolamine administration and measured after 5 mins by Ellman's method", "assay_type": "functional, tissue-based", "conditions": "dose 2.5-10 mg/kg, route po, time 35.0 min"}, "SH-SY5Y [4]": {"system": "SH-SY5Y", "assay": "(§1) Neuroprotective activity against amyloid-beta(1 to 42) induced oxidative stress in differentiated human SH-SY5Y cells assessed as increase in cell viability at 40 uM preincubated with amyloid-beta (1 to 42 ) for 24 hrs followed by compound addition and measured after 72 hrs by MTT assay relative to control", "assay_type": "functional"}, "[5]": {"assay": "Acute toxicity in Wistar rat assessed as effect on kidney appearance at 500 to 1000 mg/kg, po administered for 14 days by histopathological analysis", "assay_type": "organism-based", "conditions": "in vivo, 336 h, dose 500-1000 mg/kg, time 14 day"}, "[6]": {"assay": "Toxicity in wildtype Oregon R-positive Drosophila assessed as cell viability in gut at 5 uM by MTT assay relative to control", "assay_type": "tissue-based", "conditions": "read-out: Activity"}, "Rattus norvegicus [7]": {"system": "Rattus norvegicus", "assay": "Reversal of amyloid beta (1 to 42 residues) induced cognitive impairment in Wistar rat assessed as reduction in escape latency time at 10 mg/kg, po pretreated with amyloid beta for 7 days followed by compound administration for 9 days and measured after 5 days by Morris water maze test", "assay_type": "functional, organism-based", "conditions": "time 14.0 day"}, "Hippocampus [8]": {"system": "Hippocampus", "assay": "Reversal of scopolamine-induced oxidative stress in male Wistar rat brain hippocampus assessed as increase in GSH level preadministered orally with compound for 30 mins starting from 7 th day trail followed by scopolamine administration and measured after 5 mins", "assay_type": "functional, tissue-based", "conditions": "dose 2.5-10 mg/kg, route po, time 35.0 min"}, "[9]": {"assay": "Acute toxicity in Wistar rat assessed as effect on glomerulus shape at 500 to 1000 mg/kg, po administered for 14 days by histopathological analysis", "assay_type": "organism-based", "conditions": "in vivo, 336 h, dose 500-1000 mg/kg, time 14 day"}, "[10]": {"assay": "AUC (0 to 8 hrs) in male Wistar rat at 10 mg/kg, po measured after 72 hrs by HPLC analysis", "assay_type": "ADME, organism-based", "conditions": "in vivo"}, "[11]": {"target": "Amyloid-beta precursor protein (Homo sapiens) (UniProt P05067)", "sequence (P05067 whole entry)": "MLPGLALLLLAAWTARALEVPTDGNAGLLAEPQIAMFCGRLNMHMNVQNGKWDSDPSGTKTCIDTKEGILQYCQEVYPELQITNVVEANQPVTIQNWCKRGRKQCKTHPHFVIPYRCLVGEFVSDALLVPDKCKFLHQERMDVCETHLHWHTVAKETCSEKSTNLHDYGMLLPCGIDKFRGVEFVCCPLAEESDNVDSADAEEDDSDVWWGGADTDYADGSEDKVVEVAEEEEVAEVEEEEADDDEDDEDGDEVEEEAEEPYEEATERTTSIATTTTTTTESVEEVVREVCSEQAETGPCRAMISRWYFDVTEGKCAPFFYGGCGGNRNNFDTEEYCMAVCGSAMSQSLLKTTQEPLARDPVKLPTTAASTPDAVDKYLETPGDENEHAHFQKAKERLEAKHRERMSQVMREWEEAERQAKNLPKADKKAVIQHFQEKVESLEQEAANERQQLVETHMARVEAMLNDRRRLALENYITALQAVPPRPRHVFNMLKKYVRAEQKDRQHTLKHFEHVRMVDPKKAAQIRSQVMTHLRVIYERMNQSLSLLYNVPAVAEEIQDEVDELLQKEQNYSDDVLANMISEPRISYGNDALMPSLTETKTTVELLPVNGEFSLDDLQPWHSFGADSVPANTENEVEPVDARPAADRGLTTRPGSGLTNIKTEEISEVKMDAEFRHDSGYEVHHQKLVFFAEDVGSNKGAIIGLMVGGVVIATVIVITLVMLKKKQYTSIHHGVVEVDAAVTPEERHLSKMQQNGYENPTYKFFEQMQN", "assay": "Inhibition of amyloid beta (1 to 42) (unknown origin) aggregation assessed as reduction in fluorescence intensity at 50 uM incubated for 48 hrs by confocal microscopic analysis"}, "[12]": {"assay": "Acute toxicity in Wistar rat assessed as effect on central vein appearance in liver at 500 to 1000 mg/kg, po administered for 14 days by histopathological analysis", "assay_type": "organism-based", "conditions": "in vivo, 336 h, dose 500-1000 mg/kg, time 14 day"}, "[13]": {"assay": "Acute toxicity in Wistar rat assessed as toxicity symptoms at 500 to 1000 mg/kg, po administered for 14 days", "assay_type": "organism-based", "conditions": "in vivo, 336 h, dose 500-1000 mg/kg, time 14 day"}, "[14]": {"target": "Dual specificity tyrosine-phosphorylation-regulated kinase 1A (Homo sapiens, UniProt Q13627)", "assay": "Inhibition of Dyrk1A (unknown origin) incubated for 1 hrs in presence of [gamma-33P]-ATP by microplate scintillation counter based radiometric protein kinase assay"}, "SH-SY5Y [15]": {"system": "SH-SY5Y", "assay": "as §1, with “48” for “72”", "assay_type": "functional"}, "Acetylcholinesterase [16]": {"target": "T1, Acetylcholinesterase (Homo sapiens, UniProt P22303)", "T1 sequence (P22303 whole entry)": "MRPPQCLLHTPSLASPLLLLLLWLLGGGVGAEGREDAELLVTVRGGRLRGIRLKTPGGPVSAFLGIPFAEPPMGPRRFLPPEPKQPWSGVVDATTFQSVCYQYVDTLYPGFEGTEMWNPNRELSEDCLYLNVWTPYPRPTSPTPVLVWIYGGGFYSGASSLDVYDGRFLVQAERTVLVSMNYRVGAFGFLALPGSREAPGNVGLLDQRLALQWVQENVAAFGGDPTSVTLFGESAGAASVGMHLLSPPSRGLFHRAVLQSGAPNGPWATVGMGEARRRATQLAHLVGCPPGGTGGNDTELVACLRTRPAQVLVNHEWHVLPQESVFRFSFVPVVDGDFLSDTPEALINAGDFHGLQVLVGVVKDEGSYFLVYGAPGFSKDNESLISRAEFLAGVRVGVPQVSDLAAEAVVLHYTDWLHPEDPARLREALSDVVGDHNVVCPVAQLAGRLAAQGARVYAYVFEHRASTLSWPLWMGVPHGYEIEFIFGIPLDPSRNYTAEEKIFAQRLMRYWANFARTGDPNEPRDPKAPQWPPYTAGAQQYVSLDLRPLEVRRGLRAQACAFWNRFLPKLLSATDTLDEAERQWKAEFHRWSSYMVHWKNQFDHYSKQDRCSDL", "assay": "Mixed type non-competitive inhibition of human erythrocyte AChE using acetylthiocholine iodide as substrate assessed as decrease in Vmax with increase in Km at 0.25 to 0.75 uM by Lineweaver-burk plot analysis", "conditions": "dose 0.25-0.75 µM"}, "Rattus norvegicus [17]": {"system": "Rattus norvegicus", "assay": "(§2) Reversal of amyloid beta (1 to 42 residues) induced cognitive impairment in Wistar rat assessed as increase in platform crossings at 10 mg/kg, po pretreated with amyloid beta for 7 days followed by compound administration for 9 days and measured after 5 days by Morris water maze test", "assay_type": "functional, organism-based", "conditions": "time 14.0 day"}, "Hippocampus [18]": {"system": "Hippocampus", "assay": "Reversal of scopolamine-induced oxidative stress in male Wistar rat brain hippocampus assessed as increase in catalase level preadministered orally with compound for 30 mins starting from 7 th day trail followed by scopolamine administration and measured after 5 mins by spectrophotometric analysis", "assay_type": "functional, tissue-based", "conditions": "dose 2.5-10 mg/kg, route po, time 35.0 min"}, "Rattus norvegicus [19]": {"system": "Rattus norvegicus", "assay": "Reversal of amyloid beta (1 to 42 residues) induced cognitive impairment in Wistar rat assessed as reduction in focal gliosis in cerebral cortex at 2.5 to 10 mg/kg, po pretreated with amyloid beta for 7 days followed by compound administration for 9 days and measured after 5 days by Nissl's staining based analysis", "assay_type": "functional, organism-based", "conditions": "dose 2.5-10 mg/kg, time 14.0 day"}, "Rattus norvegicus [20]": {"system": "Rattus norvegicus", "assay": "Antialzheimer activity against scopolamine-induced amnesia in male Wistar rat model assessed as restoration of memory function by measuring percentage spontaneous alteration at 2.5 to 10 mg/kg, po preadministered with compound for 30 mins starting from 7 th day trail followed by scopolamine administration and measured after 5 mins by Y maze test", "assay_type": "functional, organism-based", "conditions": "dose 2.5-10 mg/kg, time 35.0 min"}, "Cholinesterase": {"target": "Cholinesterase (Homo sapiens, UniProt P06276)", "sequence (P06276 whole entry)": "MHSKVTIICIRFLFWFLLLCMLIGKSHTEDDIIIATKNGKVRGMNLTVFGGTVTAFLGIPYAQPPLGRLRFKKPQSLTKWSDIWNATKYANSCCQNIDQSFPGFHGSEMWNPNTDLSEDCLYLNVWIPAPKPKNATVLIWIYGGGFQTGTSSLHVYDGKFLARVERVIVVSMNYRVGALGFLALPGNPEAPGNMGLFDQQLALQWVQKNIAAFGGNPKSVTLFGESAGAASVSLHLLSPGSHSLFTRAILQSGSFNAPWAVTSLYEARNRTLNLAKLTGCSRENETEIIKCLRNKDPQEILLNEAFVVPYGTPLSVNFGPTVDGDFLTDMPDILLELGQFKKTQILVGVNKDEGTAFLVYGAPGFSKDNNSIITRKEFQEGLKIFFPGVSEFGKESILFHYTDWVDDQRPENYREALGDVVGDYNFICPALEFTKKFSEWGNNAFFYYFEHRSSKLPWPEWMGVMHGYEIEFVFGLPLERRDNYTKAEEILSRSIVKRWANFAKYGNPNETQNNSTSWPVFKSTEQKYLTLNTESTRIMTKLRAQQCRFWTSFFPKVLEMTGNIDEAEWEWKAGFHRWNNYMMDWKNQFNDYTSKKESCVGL", "assay": "Inhibition of human BChE using butyrylthiocholine iodide as substrate preincubated for 30 mins followed by substrate addition by DTNB based Ellman's colorimetric method"}, "[21]": {"assay": "Acute toxicity in Wistar rat assessed as effect on cardiac muscle at 500 to 1000 mg/kg, po administered for 14 days by histopathological analysis", "assay_type": "organism-based", "conditions": "in vivo, 336 h, dose 500-1000 mg/kg, time 14 day"}, "Acetylcholinesterase [22]": {"target": "T1, Acetylcholinesterase", "assay": "Inhibition of human erythrocyte AChE using acetylthiocholine iodide as substrate preincubated for 30 mins followed by substrate addition by DTNB based Ellman's colorimetric method"}, "[23]": {"assay": "Acute toxicity in Wistar rat assessed as effect on PCT shape at 500 to 1000 mg/kg, po administered for 14 days by histopathological analysis", "assay_type": "organism-based", "conditions": "in vivo, 336 h, dose 500-1000 mg/kg, time 14 day"}, "[24]": {"target": "Amyloid-beta precursor protein (Homo sapiens) (UniProt P05067)", "assay": "Inhibition of amyloid beta (1 to 42) (unknown origin) self aggregation ar 5 to 20 uM incubated for 48 hrs by Thioflavin T fluorescence assay relative to control", "conditions": "dose 5-20 µM"}, "Beta-secretase 1": {"target": "Beta-secretase 1 (Homo sapiens, UniProt P56817)", "sequence (P56817 whole entry, the tested form may be a part)": "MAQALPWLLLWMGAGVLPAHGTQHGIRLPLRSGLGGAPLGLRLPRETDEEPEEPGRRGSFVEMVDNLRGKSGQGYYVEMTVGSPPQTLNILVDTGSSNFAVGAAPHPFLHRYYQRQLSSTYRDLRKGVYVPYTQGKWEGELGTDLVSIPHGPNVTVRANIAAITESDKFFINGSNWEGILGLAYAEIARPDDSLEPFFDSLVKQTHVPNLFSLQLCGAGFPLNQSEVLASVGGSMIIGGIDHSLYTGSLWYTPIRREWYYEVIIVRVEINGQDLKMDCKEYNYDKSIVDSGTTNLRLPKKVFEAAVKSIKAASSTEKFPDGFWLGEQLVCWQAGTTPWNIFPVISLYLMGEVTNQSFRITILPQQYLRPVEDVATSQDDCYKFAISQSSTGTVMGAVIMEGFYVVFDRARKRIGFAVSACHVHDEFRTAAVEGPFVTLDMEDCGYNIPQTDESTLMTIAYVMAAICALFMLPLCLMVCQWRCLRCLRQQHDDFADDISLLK", "assay": "Inhibition of human BACE-1 using (7-Methoxycoumarin-4-acetyl-[Asn670, Leu671]-Amyloid beta/A4 precursor protein 770 fragments 667-676- (2, 4-dinitrophenyl) Lys-Arg-Arg amide trifluoroacetate salt as substrate incubated for 2 hrs by FRET-based analysis"}, "[25]": {"assay": "Cmax in male Wistar rat at 10 mg/kg, po measured after 72 hrs by HPLC analysis", "assay_type": "ADME, organism-based", "conditions": "in vivo"}, "[26]": {"target": "Amyloid-beta precursor protein (Homo sapiens) (UniProt P05067)", "assay": "Inhibition of human AchE-induced amyloid beta (1 to 42) (unknown origin) aggregation at 5 to 20 uM incubated for 48 hrs by Thioflavin T fluorescence assay relative to control", "conditions": "dose 5-20 µM"}, "[27]": {"assay": "Acute toxicity in Wistar rat assessed as body weight loss at 500 to 1000 mg/kg, po measured for 2 to 3 days relative to control", "assay_type": "organism-based", "conditions": "in vivo, dose lower 500 mg/kg, time lower 2 day, dose upper 1000 mg/kg, time upper 3 day"}, "[28]": {"assay": "Toxicity in wildtype Oregon R-positive Drosophila assessed as cell viability in gut at 10 uM by MTT assay relative to control", "assay_type": "tissue-based", "conditions": "read-out: Activity"}, "[29]": {"assay": "Toxicity in wildtype Oregon R-positive Drosophila assessed as reduction in eclosion at 100 to 200 uM pretreated for 5 days and measured for 15 days", "conditions": "480 h, dose 100-200 µM, time 20 day"}, "[30]": {"assay": "Acute toxicity in Wistar rat assessed as effect on vacuole appearance in liver at 500 to 1000 mg/kg, po administered for 14 days by histopathological analysis", "assay_type": "organism-based", "conditions": "in vivo, 336 h, dose 500-1000 mg/kg, time 14 day"}, "Rattus norvegicus [31]": {"system": "Rattus norvegicus", "assay": "as §2, with “decrease” for “increase”, “BACE-1 level in CA1 region of hippocampus” for “platform crossings”, “immuno histochemical analysis” for “Morris water maze test”", "assay_type": "functional, organism-based", "conditions": "time 14.0 day"}},
  "note": "Calls of active or inactive are those of the source. No cut-off for these calls is given here.",
  "data": [
    {"smiles": "COc1cc(NC(=O)Cn2nc(-c3ccccc3)c(-c3ccccc3)nc2=O)cc(OC)c1", "values": [
      {"measurement": "Activity", "setting": "[1]", "value": "Non-Toxic"},
      {"measurement": "half-life", "setting": "[2]", "value": 41, "unit": "h"},
      {"measurement": "Activity", "setting": "Rattus norvegicus [3]", "value": "Dose-Dependent Effect"},
      {"measurement": "Activity", "setting": "SH-SY5Y [4]", "value": 82, "unit": "%"},
      {"measurement": "Activity", "setting": "[5]", "value": "Non-Toxic"},
      {"measurement": "viability at 5 µM", "setting": "[6]", "value": 97, "unit": "%"},
      {"measurement": "Activity", "setting": "Rattus norvegicus [7]", "value": "Active"},
      {"measurement": "Activity", "setting": "Hippocampus [8]", "value": "Dose-Dependent Effect"},
      {"measurement": "Activity", "setting": "[9]", "value": "Non-Toxic"},
      {"measurement": "AUC(0-t) at 72 h", "setting": "[10]", "value": 1140, "unit": "ng·h/mL"},
      {"measurement": "inhibition", "setting": "[11]", "value": "Active"},
      {"measurement": "Activity", "setting": "[12]", "value": "Non-Toxic"},
      {"measurement": "Activity", "setting": "[13]", "value": "Non-Toxic"},
      {"measurement": "IC50", "setting": "[14]", "value": "> 10000", "unit": "nM"},
      {"measurement": "Activity", "setting": "SH-SY5Y [15]", "value": 72, "unit": "%"},
      {"measurement": "inhibition", "setting": "Acetylcholinesterase [16]", "value": "Active"},
      {"measurement": "Activity", "setting": "Rattus norvegicus [17]", "value": "Active"},
      {"measurement": "Activity", "setting": "Hippocampus [18]", "value": "Dose-Dependent Effect"},
      {"measurement": "Activity", "setting": "Rattus norvegicus [19]", "value": "Active"},
      {"measurement": "Activity", "setting": "Rattus norvegicus [20]", "value": "Active"},
      {"measurement": "IC50", "setting": "Cholinesterase", "value": "> 10000", "unit": "nM"},
      {"measurement": "Activity", "setting": "[21]", "value": "Non-Toxic"},
      {"measurement": "IC50", "setting": "Acetylcholinesterase [22]", "value": 486, "unit": "nM"},
      {"measurement": "Activity", "setting": "[23]", "value": "Non-Toxic"},
      {"measurement": "inhibition", "setting": "[24]", "value": 23.6, "unit": "%"},
      {"measurement": "IC50", "setting": "Beta-secretase 1", "value": 542, "unit": "nM"},
      {"measurement": "Cmax", "setting": "[25]", "value": 355, "unit": "ng/mL"},
      {"measurement": "inhibition", "setting": "[26]", "value": 41.3, "unit": "%"},
      {"measurement": "Activity", "setting": "[27]", "value": 7, "unit": "%"},
      {"measurement": "viability at 10 µM", "setting": "[28]", "value": 78, "unit": "%"},
      {"measurement": "Activity", "setting": "[29]", "value": "Toxic"},
      {"measurement": "Activity", "setting": "[30]", "value": "Non-Toxic"},
      {"measurement": "Activity", "setting": "Rattus norvegicus [31]", "value": "Active"}
    ]}
  ]
}
